Biological target: human APJ receptor (Homo sapiens (Human), UniProt P35414)
Experiment: [35S]GTPγS binding assay on membranes from CHO cells stably expressing human APJ receptor
Format: biochemical
Settings: membranes of CHO cells stably expressing human APJ receptor, read-out: Activity hAPJ SPA EC50 IP
How it was run: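 Agonist EC50 values come from non-linear regression of mean data from several independent runs. Membranes of CHO cells stably expressing human APJ were incubated 90 min at room temperature with [35S]GTPγS in buffer with optimized GDP, MgCl2 and NaCl, then read on a microplate imager.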

Chain of human APJ receptor (P35414 whole entry): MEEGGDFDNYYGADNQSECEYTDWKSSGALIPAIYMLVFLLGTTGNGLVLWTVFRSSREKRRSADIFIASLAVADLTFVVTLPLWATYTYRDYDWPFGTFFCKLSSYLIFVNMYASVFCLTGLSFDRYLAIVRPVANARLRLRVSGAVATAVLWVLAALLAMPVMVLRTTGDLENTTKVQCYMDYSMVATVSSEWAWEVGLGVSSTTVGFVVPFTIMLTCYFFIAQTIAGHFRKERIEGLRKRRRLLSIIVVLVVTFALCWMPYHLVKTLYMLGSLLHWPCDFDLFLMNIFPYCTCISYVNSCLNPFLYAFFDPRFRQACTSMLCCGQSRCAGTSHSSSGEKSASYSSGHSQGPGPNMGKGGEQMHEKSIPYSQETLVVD

Structure (SMILES) | EC50
COc1cccc(-c2nnc(NS(=O)(=O)[C@@H](C)[C@H](OC)c3ncc(Cl)cn3)n2CCSC)n1 [Example 26.0, (1R,2S)-1-(5-chloropyrimidin-2-yl)-1-methoxy-N-(5-(6-methoxypyridin-2-yl)-4-(2-(methylthio)ethyl)-4H-1,2,4-triazol-3-yl)propane-2-sulfonamide] | 12 nM
COCCOc1cccc(-c2nnc(NS(=O)(=O)[C@@H](C)[C@H](OC)c3ncc(Cl)cn3)n2C(COC)COC)n1 [Example 42.0] | 17 nM
COc1cccc(-c2nnc(NS(=O)(=O)[C@@H](C)[C@H](OC)c3ncc(Cl)cn3)n2CCOC(F)F)n1 [Example 43.0] | 3.7 nM
COc1cccc(-c2nnc(NS(=O)(=O)[C@@H](C)[C@H](OC)c3ncc(Cl)cn3)n2CCC#N)n1 [Example 44.0] | 4.9 nM
COc1cccc(-c2nnc(NS(=O)(=O)[C@@H](C)[C@H](OC)c3ncc(Cl)cn3)n2CCC(N)=O)n1 [Example 45.0] | 60 nM
CO[C@H](c1ncc(Cl)cn1)[C@H](C)S(=O)(=O)Nc1nnc(-c2ccccn2)n1C(C1CC1)C1CC1 [Example 46.0] | 0.33 nM
CCC(CC)n1c(NS(=O)(=O)[C@@H](C)[C@H](OC)c2ncc(Cl)cn2)nnc1-c1ccccn1 [Example 47.0] | 5.3 nM
COC[C@H](C)n1c(NS(=O)(=O)[C@@H](C)[C@H](OC)c2ncc(Cl)cn2)nnc1-c1cccc(OC)n1 [Example 48.0] | 1.3 nM
COC[C@@H](C)n1c(NS(=O)(=O)[C@@H](C)[C@H](OC)c2ncc(Cl)cn2)nnc1-c1cccc(OC)n1 [Example 49.0] | 0.88 nM
COCC1(n2c(NS(=O)(=O)[C@@H](C)[C@H](OC)c3ncc(Cl)cn3)nnc2-c2cccc(OC)n2)CCC1 [Example 50.0] | 0.46 nM
COCC1(n2c(NS(=O)(=O)[C@@H](C)[C@H](OC)c3ncc(Cl)cn3)nnc2-c2ccccn2)CCC1 [Example 51.0] | 1.8 nM
COc1cccc(-c2nnc(NS(=O)(=O)[C@@H](C)[C@H](OC)c3ncc(Cl)cn3)n2CCS(C)(=O)=O)n1 [Example 57.0, (1R,2S)-1-(5-Chloro-2-pyrimidinyl)-1-methoxy-N-(5-(6-methoxy-2-pyridinyl)-4-(2-(methylsulfonyl)ethyl)-4H-1,2,4-triazol-3-yl)-2-propanesulfonamide] | 211 nM
Cc1cnc([C@H](OC(C)C)[C@H](C)S(=O)(=O)Nc2nnc(-c3cncc(C)c3)n2C2(C)CC2)nc1 [Example 58.0] | 42 nM
CO[C@H](c1ncc(Cl)cn1)[C@H](C)S(=O)(=O)Nc1nnc(-c2cccc(C)n2)n1C1(C)CCC1 [Example 59.0] | 28 nM
COCC1(n2c(NS(=O)(=O)[C@@H](C)[C@H](OC)c3ncc(Cl)cn3)nnc2-c2cccnc2)CC1 [Example 60.0] | 1.2 nM
COCC1(n2c(NS(=O)(=O)[C@@H](C)[C@H](OC)c3ncc(Cl)cn3)nnc2-c2ccccn2)CC1 [Example 61.0] | 0.89 nM
COCC1(n2c(NS(=O)(=O)[C@@H](C)[C@@H](OC(C)C)c3ncc(C)cn3)nnc2-c2cccnc2)CC1 [Example 62.0] | 27 nM
COCC1(n2c(NS(=O)(=O)[C@@H](C)[C@@H](OC(C)C)c3ncc(C)cn3)nnc2-c2cncc(C)c2)CC1 [Example 63.0] | 20 nM
COCC1(n2c(NS(=O)(=O)[C@@H](C)[C@@H](OC(C)C)c3ncc(C)cn3)nnc2-c2cccc(OC)n2)CC1 [Example 64.0] | 0.16 nM
COCC1(n2c(NS(=O)(=O)[C@@H](C)[C@@H](OC(C)C)c3ncc(C)cn3)nnc2-c2ccccn2)CC1 [Example 65.0] | 24 nM
COCC1(n2c(NS(=O)(=O)[C@@H](C)[C@H](C)c3cnc(C)cn3)nnc2-c2cccnc2)CC1 [Example 66.0] | 38 nM

Structure (SMILES) | EC50
COCC1(n2c(NS(=O)(=O)[C@@H](C)[C@H](OC)c3ncc(C)cn3)nnc2-c2ccccn2)CC1 [Example 67.0] | 24 nM
COCC1(n2c(NS(=O)(=O)[C@@H](C)[C@H](C)c3ncc(Cl)cn3)nnc2-c2cccnc2)CC1 [Example 68.0] | 2.8 nM
COc1cccc(-c2nnc(NS(=O)(=O)[C@@H](C)[C@H](OC)c3ncc(Cl)cn3)n2C2CC2)n1 [Example 69.0] | 0.89 nM
COc1cccc(-c2nnc(NS(=O)(=O)[C@@H](C)[C@@H](OC(C)C)c3ncc(Cl)cn3)n2C2CC2)n1 [Example 70.0] | 0.6 nM
COc1cccc(-c2nnc(NS(=O)(=O)[C@@H](C)[C@H](OC)c3ncc(Cl)cn3)n2CC2CCC2)n1 [Example 73.0] | 3 nM
COc1cccc(-c2nnc(NS(=O)(=O)[C@@H](C)[C@H](OC)c3ncc(Cl)cn3)n2CCc2ccc(F)cc2)n1 [Example 74.0] | 31 nM
COc1cccc(-c2nnc(NS(=O)(=O)[C@@H](C)[C@H](OC)c3ncc(Cl)cn3)n2Cc2ccon2)n1 [Example 76.0] | 3.3 nM
COc1cccc(-c2nnc(NS(=O)(=O)[C@@H](C)[C@H](OC)c3ncc(Cl)cn3)n2CC(OC)OC)n1 [Example 77.0] | 135 nM
CO[C@H](c1ncc(Cl)cn1)[C@H](C)S(=O)(=O)Nc1nnc(-c2ccccn2)n1C1(C)CC1 [Example 97.0] | 11 nM
COCC(COC)n1c(NS(=O)(=O)[C@@H](C)[C@H](C)c2ncc(C)cn2)nnc1-c1cccc(OC)n1 [Example 98.0] | 6.2 nM
COCC(COC)n1c(NS(=O)(=O)[C@@H](C)[C@H](C)c2ncc(OC)cn2)nnc1-c1cccc(OC)n1 [Example 99.0] | 4.2 nM
COCC(COC)n1c(NS(=O)(=O)[C@@H](C)[C@H](OC)c2ncc(C)cn2)nnc1-c1cccc(OC)n1 [Example 100.0] | 6.4 nM
COCC(COC)n1c(NS(=O)(=O)[C@@H](C)[C@H](OC)c2cnc(OC)cn2)nnc1-c1cccc(OC)n1 [Example 101.0] | 8.9 nM
COCC(COC)n1c(NS(=O)(=O)[C@@H](C)[C@H](C)c2cnc(C)cn2)nnc1-c1cccc(OC)n1 [Example 102.0] | 20 nM
COCC(COC)n1c(NS(=O)(=O)[C@@H](C)[C@H](OC)c2cnc(C)cn2)nnc1-c1cccc(OC)n1 [Example 103.0] | 15 nM
COCC(COC)n1c(NS(=O)(=O)[C@@H](C)[C@@H](OC(C)C)c2ncc(C)cn2)nnc1-c1cccc(OC)n1 [Example 104.0] | 0.39 nM
COCC(COC)n1c(NS(=O)(=O)[C@@H](C)[C@@H](OC(C)C)c2cnc(C)cn2)nnc1-c1cccc(OC)n1 [Example 105.0] | 2.8 nM
COc1cccc(-c2nnc(NS(=O)(=O)[C@@H](C)[C@H](OC)c3ncc(Cl)cn3)n2C2(CF)CC2)n1 [Example 106.0] | 0.38 nM
COc1cccc(-c2nnc(NS(=O)(=O)[C@@H](C)[C@H](OC)c3ncc(Cl)cn3)n2C2(C3CC3)CC2)n1 [Example 107.0] | 0.42 nM
CO[C@H](c1ncc(Cl)cn1)[C@H](C)S(=O)(=O)Nc1nnc(-c2ccccn2)n1C1(C2CC2)CC1 [Example 108.0] | 5.9 nM
COc1cccc(-c2nnc(NS(=O)(=O)[C@@H](C)[C@H](OC)c3cnc(C)cn3)n2C2(C3CC3)CC2)n1 [Example 109.0] | 9.6 nM

Structure (SMILES) | EC50
CO[C@H](c1cnc(C)cn1)[C@H](C)S(=O)(=O)Nc1nnc(-c2ccccn2)n1C1(C2CC2)CC1 [Example 110.0] | 110 nM
CCC(CC)n1c(NS(=O)(=O)[C@@H](C)[C@H](OC)c2ncc(Cl)cn2)nnc1-c1cccnc1 [Example 111.0] | 27 nM
CO[C@H](c1ncc(Cl)cn1)[C@H](C)S(=O)(=O)Nc1nnc(-c2cccnc2)n1C(C1CC1)C1CC1 [Example 112.0] | 3.3 nM
COCC(COC)n1c(NS(=O)(=O)[C@@H](C)[C@@H](OC(C)C)c2ncc(Cl)cn2)nnc1-c1ccccn1 [Example 113.0] | 1.8 nM
COc1cccc(-c2nnc(NS(=O)(=O)[C@@H](C)[C@H](C)c3ncc(C)cn3)n2C2CC2)n1 [Example 114.0] | 54 nM
COc1cnc([C@@H](C)[C@H](C)S(=O)(=O)Nc2nnc(-c3cccc(OC)n3)n2C2CC2)cn1 [Example 118.0] | 31 nM
COc1cnc([C@@H](C)[C@H](C)S(=O)(=O)Nc2nnc(-c3cccc(OC)n3)n2C2CC2)nc1 [Example 119.0] | 28 nM
COc1cccc(-c2nnc(NS(=O)(=O)[C@@H](C)[C@H](OC)c3ncc(C)cn3)n2C2CC2)n1 [Example 120.0] | 24 nM
COc1cnc([C@@H](OC)[C@H](C)S(=O)(=O)Nc2nnc(-c3cccc(OC)n3)n2C2CC2)cn1 [Example 121.0] | 21 nM
COc1cccc(-c2nnc(NS(=O)(=O)[C@@H](C)[C@H](OC)c3cnc(C)cn3)n2C2CC2)n1 [Example 122.0] | 56 nM
COc1cccc(-c2nnc(NS(=O)(=O)[C@@H](C)[C@@H](OC(C)C)c3cnc(C)cn3)n2C2CC2)n1 [Example 123.0] | 5.6 nM
COC[C@@H](C)n1c(NS(=O)(=O)[C@@H](C)[C@H](OC)c2ncc(Cl)cn2)nnc1-c1ccccn1 [Example 124.0] | 24 nM
COC[C@@H](C)n1c(NS(=O)(=O)[C@@H](C)[C@H](OC)c2ncc(Cl)cn2)nnc1-c1cccnc1 [Example 125.0] | 90 nM
COC[C@@H](C)n1c(NS(=O)(=O)[C@@H](C)[C@H](OC)c2ncc(Cl)cn2)nnc1-c1cncc(C)c1 [Example 126.0] | 38 nM
CC(C)O[C@@H](c1ncc(Cl)cn1)[C@H](C)S(=O)(=O)Nc1nnc(-c2ccccn2)n1C1CC1 [Example 127.0] | 48 nM
CC(C)O[C@@H](c1ncc(Cl)cn1)[C@H](C)S(=O)(=O)Nc1nnc(-c2cccnc2)n1C1CC1 [Example 128.0] | 55 nM
Cc1cncc(-c2nnc(NS(=O)(=O)[C@@H](C)[C@@H](OC(C)C)c3ncc(Cl)cn3)n2C2CC2)c1 [Example 129.0] | 66 nM
CO[C@H](c1ncc(Cl)cn1)[C@H](C)S(=O)(=O)Nc1nnc(-c2ccccn2)n1C [Example 130.0] | 350 nM
CCn1c(NS(=O)(=O)[C@@H](C)[C@H](OC)c2ncc(Cl)cn2)nnc1-c1ccccn1 [Example 131.0] | 25 nM
COCCn1c(NS(=O)(=O)[C@@H](C)[C@H](OC)c2ncc(Cl)cn2)nnc1-c1ccccn1 [Example 132.0] | 150 nM

— patent US10689367B2, “Triazole pyridyl compounds as agonists of the APJ receptor” (AMGEN INC., priority 2016, dated 2020)
